The results in this text go back to patent US20250228762A1, “COSMETIC COMPOSITION COMPRISING LUTEIN AND A POLYSACCHARIDE” (ALGAKTIV, S.L., priority 2022, published 2025).

Common to all, as to format: cell-based
For test [1], the system named is RARalpha. Put plainly: RAR alpha agonist assay (SelectScreen GeneBLAzer, UAS-bla HEK 293T). The method, then: (§1) An agonist assay for RAR was performed by SelectScreen® Cell-Based Nuclear Receptor Profiling Service of Life Technologies. In this assay, an engineered cell line (UAS-bla HEK 293T) expressing RARalpha, RARbeta or RAR gamma is used to test the action of lutein. GeneBLAzer® technology, based on mammalian-optimized Beta-lactamase reporter gene (bla) combined with a FRET-enabled substrate, provides the assay with a sensitive detection method. […] The plate is incubated for 16-24 hours at 37° C./5% CO2 in a humidified incubator. 8 μL of 1 μM Substrate Loading Solution is added to each well and the plate is incubated for 2 hours at room temperature. The plate is read on a fluorescence plate reader.

Test [2] has as its system RAR gamma. Put plainly: RAR gamma agonist assay (SelectScreen GeneBLAzer, UAS-bla HEK 293T). As for the experimental part:
as §1

Test [3] has as its system RARbeta. In words: RAR beta agonist assay (SelectScreen GeneBLAzer, UAS-bla HEK 293T). The method, then: as §1
The mark [4] stands for this setting: at any concentration below 3.2 μM.

Consider `CC1=C[C@H](O)CC(C)(C)[C@H]1/C=C/C(C)=C/C=C/C(C)=C/C=C/C=C(C)/C=C/C=C(C)/C=C/C1=C(C)C[C@@H](O)CC1(C)C` [Lutein, (1R,4R)-4-{(1E,3E,5E,7E,9E,11E,13E,15E,17E)-18-[(4R)-4-Hydroxy-2,6,6-trimethylcyclohex-1-en-1-yl]-3,7,12,16-tetramethyloctadeca-1,3,5,7,9,11,13,15,17-nonaen-1-yl}-3,5,5-trimethylcyclohex-2-en-1-ol], for which the “agonist effect on RAR alpha” value in test [1] (setting [4]) was “No agonist effect”. Also, the “agonist effect on RAR gamma” value in test [2] (setting [4]) was “No agonist effect”. In test [3] (RAR-beta-UAS-bla HEK 293T), the “concentrations at which a specific RAR-beta partial agonist effect could be measured” value is reported as “above 100 nm”. This molecule returned an RAR-beta activation in test [3] (at 3.16 μM) of about 40%.

Usually EC50 stands for the midpoint of the concentration-response curve. On to `CC1=C(/C=C/C(C)=C/C=C/C(C)=C/C(=O)O)C(C)(C)CCC1` [ATRA, reference compound], for which the EC50 in test [1] (RAR-alpha-UAS-bla HEK 293T, FIG. 2, read-out: EC50 (control agonist, RAR alpha)) worked out at […]; in test [2] (RAR-gamma-UAS-bla HEK 293T, FIG. 4, read-out: EC50 (control agonist, RAR gamma)) it was 0.131 nM; in test [3] (RAR-beta-UAS-bla HEK 293T, FIG. 3, read-out: EC50 (control agonist, RAR beta)) it was 0.46 nM.
